Laboratory results reported in ChEMBL document CHEMBL3992499, “Synthesis, biological evaluation, QSAR and molecular dynamics simulation studies of potential fibroblast growth factor receptor 1 inhibitors for the treatment of gastric cancer” (Eur J Med Chem, 2017).
Activity calls are given as the source filed them. The rule behind the calls is not given here.

What was measured:
MGC-803 = assay: Antiproliferative activity against human MGC803 cells after 72 hrs by MTT assay; details: MGC-803, 72 h
BGC-823 = assay: Antiproliferative activity against human BGC823 cells after 72 hrs by MTT assay; details: BGC-823, 72 h
SGC-7901 [1] = assay: Antiproliferative activity against human SGC7901 cells after 72 hrs by MTT assay; details: SGC-7901, 72 h
SGC-7901 [2] = assay: Induction of apoptosis in human SGC7901 cells assessed as increase in cleaved PARP expression level at 10 uM after 48 hrs by Western blot method; format: functional, cell-based
SGC-7901 [3] = assay: Induction of apoptosis in human SGC7901 cells assessed as decrease in Bcl2 expression level after 48 hrs by Western blot method; format: functional, cell-based
SGC-7901 [4] = assay: Cell cycle arrest in human SGC7901 cells assessed as reduction in G2/M phase up to 20 uM after 8 hrs by propidium iodide staining based flow cytometry; format: functional
SGC-7901 [5] = assay: Induction of apoptosis in human SGC7901 cells assessed as downregulation of Cyclin D1 expression by western blot method; format: functional, cell-based
SGC-7901 [6] = assay: Induction of apoptosis in human SGC7901 cells assessed as decrease in Bcl2 expression level at 10 uM after 48 hrs by Western blot method; format: functional, cell-based
SGC-7901 [7] = assay: Induction of apoptosis in human SGC7901 cells assessed as increase in cleaved PARP expression level after 48 hrs by Western blot method; format: functional, cell-based
SGC-7901 [8] = assay: Induction of apoptosis in human SGC7901 cells assessed as chromatin condensation after 12 hrs by Hoechst 33342 staining based fluorescence microscopic method; format: functional, cell-based
SGC-7901 [9] = assay: Induction of apoptosis in human SGC7901 cells assessed as nuclear fragmentation up to 20 uM after 12 hrs by Hoechst 33342 staining based fluorescence microscopic method; format: functional, cell-based
SGC-7901 [10] = assay: Cell cycle arrest in human SGC7901 cells assessed as accumulation at G0/G1 phase after 8 hrs by propidium iodide staining based flow cytometry; format: functional

IC50 (MGC-803) [µM]	IC50 (BGC-823) [µM]	IC50 (SGC-7901 [1]) [µM]	SMILES	Activity (SGC-7901 [2])	Activity (SGC-7901 [3])	Activity (SGC-7901 [4])	Activity (SGC-7901 [5])	Activity (SGC-7901 [6])	Activity (SGC-7901 [7])	Activity (SGC-7901 [8])	Activity (SGC-7901 [9])	Activity (SGC-7901 [10])
2.6	2	9.6	COc1cc(/C=C2\CC/C(=C\c3c[nH]c4ccc(Br)cc34)C2=O)ccc1O	Active	Dose-dependent effect	Active	Dose-dependent effect	Active	Dose-dependent effect	Dose-dependent effect	Active	Dose-dependent effect
5	10.1	5.7	COc1cc(/C=C2\CC/C(=C\c3ccc(OC(=O)C(C)C)c(OC)c3)C2=O)ccc1OC(=O)C(C)C	–	–	–	–	–	–	–	–	–
8.3	11.9	4.7	CCC(=O)Oc1ccc(/C=C2\CC/C(=C\c3ccc(OC(=O)CC)c(OC)c3)C2=O)cc1OC	–	–	–	–	–	–	–	–	–

Continued, compound first:

SMILES	IC50 (MGC-803) [µM]	IC50 (BGC-823) [µM]	IC50 (SGC-7901 [1]) [µM]	Activity (SGC-7901 [2])	Activity (SGC-7901 [3])	Activity (SGC-7901 [4])	Activity (SGC-7901 [5])	Activity (SGC-7901 [6])	Activity (SGC-7901 [7])	Activity (SGC-7901 [8])	Activity (SGC-7901 [9])	Activity (SGC-7901 [10])
COc1cc(/C=C2\CCC/C(=C\c3ccc(N4CCCCC4)cc3)C2=O)ccc1OC(=O)C(C)C	11.8	31.5	18.8	–	–	–	–	–	–	–	–	–
CC(Cc1ccc(O)c(O)c1)C(C)Cc1ccc(O)c(O)c1 (configuration not stated) [NORDIHYDROGUAIARETIC ACID]	45.8	> 60	> 60	–	–	–	–	–	–	–	–	–
COc1cc(CCc2cc(NC(=O)c3ccc(N4C[C@@H](C)N[C@@H](C)C4)cc3)n[nH]2)cc(OC)c1 [FEXAGRATINIB]	6.2	7.9	2.8	–	–	–	–	–	–	–	–	–
COc1cc(/C=C/C(=O)/C=C/c2ccc(N3CCCC3)cc2)ccc1O	12.3	21.2	8.2	–	–	–	–	–	–	–	–	–
CCN(CC)c1ccc(/C=C/C(=O)/C=C/c2ccc(O)c(OC)c2)cc1	2.1	2.5	8.2	Active	Dose-dependent effect	Active	Dose-dependent effect	Active	Dose-dependent effect	Dose-dependent effect	Active	Dose-dependent effect
